Measured values taken from patent US20160235727A1, “NOVEL PYRROLIDINE DERIVED BETA 3 ADRENERGIC RECEPTOR AGONISTS” (Merck Sharp & Dohme Corp., priority 2013, published 2016).
pEC50: −log10 of the molar value.

Target: T1, human β3-AR (Homo sapiens, UniProt P13945)
T1 construct: expressed in transfected cells; host or cells: CHO (Chinese hamster ovary) cells, stably transfected
Assay: cAMP functional agonist assay (LANCE TR-FRET) in CHO cells expressing cloned human β3-AR
Assay type: cell-based
Settings: for pEC50: CHO cells stably expressing cloned human β3-adrenoceptor, cAMP release, read-out: Human β3-AR Agonism EC50; for Fold drop in potency vs. 2-chloropyridine analog: EC50 of comparative example divided by EC50 of corresponding 2-chloropyridine compound; for Human β3-AR Agonist Activity (%): percent maximum activation relative to isoproterenol
Procedure: The ability of compounds to activate the human β3-AR receptor was measured using a CHO cell line stably expressing the cloned human β1-, β2-, and β3-adrenoceptors (β-AR). […] To quantify the amount of cAMP released following β-AR activation, the LANCE cAMP kit (Perking Elmer), a time-resolved fluorescence resonance energy transfer immunoassay, was used. Compounds were serially diluted in DMSO and an aliquot added to either 384-well or 96-well micro titer plates in assay buffer (5 mM HEPES, 0.1% BSA in Hank's Balanced Salt Solution). […] Following 30 min incubation at room temperature, the cells were lysed by the addition of LANCE detection buffer which contained a europium-labeled cAMP tracer. Fluorescence was measured following one hour incubation at room temperature using a Perking Elmer Envision plate reader, exciting at 340 nm and measuring emission at 615 nm and 665 nm. For each assay, a cAMP standard curve was included and used to convert fluorescence readings directly to cAMP amounts. The values were then normalized to isoproterenol, a known full agonist of β-AR, which was titrated in every assay and the EC50 determined using a custom in-house data analysis package. Along with EC50, the percent maximum activation relative to isoproterenol is reported.
The cAMP production is measured using a homogenous time-resolved fluorescence resonance energy transfer immunoassay (LANCE™, Perkin Elmer) according to the manufacture's instructions. Chinese hamster ovary (CHO) cells, stably transfected with the cloned β-adrenergic receptor (β1, β2 or β3) are harvested after 3 days of subculturing. Harvesting of cells is done with Enzyme-free Dissociation Media (Specialty Media). Cells are then counted and resuspended in assay buffer (Hank's Balanced salt solution supplemented with 5 mM HEPES, […]) containing a phosphodiesterase inhibitor (IBMX, 0.6 mM). The reaction is initiated by mixing 6,000 cells in 6 μL with 6 μL Alexa Fluor labeled cAMP antibody (LANCE™ kit) which is then added to an assay well containing 12 μL of compound (diluted in assay buffer to 2× final concentration). The reaction proceeds for 30 minutes at RT and is terminated by the addition of 24 ul detection buffer (LANCE™ kit). The assay plate is then incubated for 1 h at RT and time-resolved fluorescence measured on a Perkin Elmer Envision reader or equivalent. The unknown cAMP level is determined by comparing fluorescence levels to a cAMP standard curve.
The non-selective, full agonist β-adrenergic ligand isoproterenol is used at all three receptors to determine maximal stimulation. […] Data are analyzed using Microsoft Excel and Graphpad Prism or an internally developed data analysis software package. […]

T1 sequence (P13945 whole entry): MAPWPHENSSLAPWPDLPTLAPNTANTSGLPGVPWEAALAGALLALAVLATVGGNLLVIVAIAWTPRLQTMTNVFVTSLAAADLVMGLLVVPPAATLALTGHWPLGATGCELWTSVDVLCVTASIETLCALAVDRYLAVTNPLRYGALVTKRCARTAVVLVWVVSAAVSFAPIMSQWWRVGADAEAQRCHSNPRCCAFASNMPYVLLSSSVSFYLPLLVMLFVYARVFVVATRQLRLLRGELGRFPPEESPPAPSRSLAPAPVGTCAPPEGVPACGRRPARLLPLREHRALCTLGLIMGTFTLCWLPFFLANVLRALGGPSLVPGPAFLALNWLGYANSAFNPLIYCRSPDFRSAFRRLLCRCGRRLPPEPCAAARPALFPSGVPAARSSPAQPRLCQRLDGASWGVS

| SMILES | pEC50 | Fold drop in potency vs. 2-chloropyridine analog | Human β3-AR Agonist Activity (%) |
| --- | --- | --- | --- |
| CC(C)c1cc(CN(C)C(=O)c2ccc(C[C@@H]3CC[C@H]([C@H](O)c4ccccc4)N3)cc2)n[nH]1 [Example 7-B, 4-(((2S,5R)-5-((R)-hydroxy(phenyl)methyl)pyrrolidin-2-yl)methyl)-N-((5-isopropyl-1H-pyrazol-3-yl)methyl)-N-methylbenzamide] | 6.73 | 3.2 fold | 110% |
| CN(Cc1cc(C2CC2)[nH]n1)C(=O)c1ccc(C[C@@H]2CC[C@H]([C@H](O)c3ccc(Cl)nc3)N2)cc1 [Example 8-A, 4-(((2S,5R)-5-((R)-(6-chloropyridin-3-yl)(hydroxy)methyl)pyrrolidin-2-yl)methyl)-N-((5-cyclopropyl-1H-pyrazol-3-yl)methyl)-N-methylbenzamide] | 7.70 | – | 103% |
| CN(Cc1cc(C2CC2)[nH]n1)C(=O)c1ccc(C[C@@H]2CC[C@H]([C@H](O)c3ccccc3)N2)cc1 [Example 8-B, N-((5-cyclopropyl-1H-pyrazol-3-yl)methyl)-4-(((2S,5R)-5-((R)-hydroxy(phenyl)methyl)pyrrolidin-2-yl)methyl)-N-methylbenzamide] | 7.41 | 2.0 fold | 103% |
| COCc1cc(CN(C)C(=O)c2ccc(C[C@@H]3CC[C@H]([C@H](O)c4ccc(Cl)nc4)N3)cc2)n[nH]1 [Example 9-A, 4-(((2S,5R)-5-((R)-(6-chloropyridin-3-yl)(hydroxy)methyl)pyrrolidin-2-yl)methyl)-N-((5-(methoxymethyl)-1H-pyrazol-3-yl)methyl)-N-methylbenzamide] | 8.52 | – | 93% |
| COCc1cc(CN(C)C(=O)c2ccc(C[C@@H]3CC[C@H]([C@H](O)c4ccccc4)N3)cc2)n[nH]1 [Example 9-B, 4-(((2S,5R)-5-((R)-hydroxy(phenyl)methyl)pyrrolidin-2-yl)methyl)-N-((5-(methoxymethyl)-1H-pyrazol-3-yl)methyl)-N-methylbenzamide] | 7.82 | 5.5 fold | 102% |
| COCc1cc(CN(C)C(=O)c2ccc(C[C@@H]3CC[C@H]([C@H](O)c4ccc(OC(F)F)cc4)N3)cc2)n[nH]1 [Example 9-E, 4-(((2S,5R)-5-((R)-(4-(difluoromethoxy)phenyl)(hydroxy)methyl)pyrrolidin-2-yl)methyl)-N-((5-(methoxymethyl)-1H-pyrazol-3-yl)methyl)-N-methylbenzamide] | 6.97 | 39.6 fold | 76% |
| COCc1cc(CN(C)C(=O)c2ccc(C[C@@H]3CC[C@H]([C@H](O)c4ccc(Cl)cc4)N3)cc2)n[nH]1 [Example 9-G, 4-(((2S,5R)-5-((R)-(4-chlorophenyl)(hydroxy)methyl)pyrrolidin-2-yl)methyl)-N-((5-(methoxymethyl)-1H-pyrazol-3-yl)methyl)-N-methylbenzamide] | 8.40 | 1.6 fold | 97% |
| COCc1cc(CN(C)C(=O)c2ccc(C[C@@H]3CC[C@H]([C@H](O)c4cccnc4)N3)cc2)n[nH]1 [Example 9-H, 4-(((2S,5R)-5-((R)-hydroxy(pyridin-3-yl)methyl)pyrrolidin-2-yl)methyl)-N-((5-(methoxymethyl)-1H-pyrazol-3-yl)methyl)-N-methylbenzamide] | 6.98 | 38.1 fold | 101% |
| CN(Cc1cc(C(F)(F)F)[nH]n1)C(=O)c1ccc(C[C@@H]2CC[C@H]([C@H](O)c3ccc(Cl)nc3)N2)cc1 [Example 10-A, 4-(((2S,5R)-5-((R)-(6-chloropyridin-3-yl)(hydroxy)methyl)pyrrolidin-2-yl)methyl)-N-methyl-N-((5-(trifluoromethyl)-1H-pyrazol-3-yl)methyl)benzamide] | 8.70 | – | 96% |
| CN(Cc1cc(C(F)(F)F)[nH]n1)C(=O)c1ccc(C[C@@H]2CC[C@H]([C@H](O)c3ccccc3)N2)cc1 [Example 10-B, 4-(((2S,5R)-5-((R)-hydroxy(phenyl)methyl)pyrrolidin-2-yl)methyl)-N-methyl-N-((5-(trifluoromethyl)-1H-pyrazol-3-yl)methyl)benzamide] | 8.30 | 3.2 fold | 110% |
| CN(Cc1cc(C(F)(F)F)[nH]n1)C(=O)c1ccc(C[C@@H]2CC[C@H]([C@H](O)c3cccnc3)N2)cc1 [Example 10-H, 4-(((2S,5R)-5-((R)-hydroxy(pyridin-3-yl)methyl)pyrrolidin-2-yl)methyl)-N-methyl-N-((5-(trifluoromethyl)-1H-pyrazol-3-yl)methyl)benzamide] | 7.66 | 13.9 fold | 98% |
| CCOc1cc(CN(C)C(=O)c2ccc(C[C@@H]3CC[C@H]([C@H](O)c4ccc(Cl)nc4)N3)cc2)[nH]n1 [Example 11-A, 4-(((2S,5R)-5-((R)-(6-chloropyridin-3-yl)(hydroxy)methyl)pyrrolidin-2-yl)methyl)-N-((5-ethoxy-1H-pyrazol-3-yl)methyl)-N-methylbenzamide] | 8.15 | – | 95% |
| CCOc1cc(CN(C)C(=O)c2ccc(C[C@@H]3CC[C@H]([C@H](O)c4ccccc4)N3)cc2)n[nH]1 [Example 11-B, N-((5-ethoxy-1H-pyrazol-3-yl)methyl)-4-(((2S,5R)-5-((R)-hydroxy(phenyl)methyl)pyrrolidin-2-yl)methyl)-N-methylbenzamide] | 7.59 | 4.0 fold | 116% |
| CCc1[nH]nc(CN(C)C(=O)c2ccc(C[C@@H]3CC[C@H]([C@H](O)c4ccc(Cl)nc4)N3)cc2)c1C [Example 12-A, 4-(((2S,5R)-5-((R)-(6-chloropyridin-3-yl)(hydroxy)methyl)pyrrolidin-2-yl)methyl)-N-((5-ethyl-4-methyl-1H-pyrazol-3-yl)methyl)-N-methylbenzamide] | 7.89 | – | 95% |
| CCc1[nH]nc(CN(C)C(=O)c2ccc(C[C@@H]3CC[C@H]([C@H](O)c4ccccc4)N3)cc2)c1C [Example 12-B, N-((5-ethyl-4-methyl-1H-pyrazol-3-yl)methyl)-4-(((2S,5R)-5-((R)-hydroxy (phenyl)methyl)pyrrolidin-2-yl)methyl)-N-methylbenzamide] | 7.74 | 1.5 fold | 120% |
| CN(Cc1n[nH]c2c1CCC2)C(=O)c1ccc(C[C@@H]2CC[C@H]([C@H](O)c3ccc(Cl)nc3)N2)cc1 [Example 13-A, 4-(((2S,5R)-5-((R)-(6-chloropyridin-3-yl)(hydroxy)methyl)pyrrolidin-2-yl)methyl)-N-methyl-N-((1,4,5,6-tetrahydrocyclopenta[c]pyrazol-3-yl)methyl)benzamide] | 8.70 | – | 99% |
| CN(Cc1n[nH]c2c1CCC2)C(=O)c1ccc(C[C@@H]2CC[C@H]([C@H](O)c3ccccc3)N2)cc1 [Example 13-B, 4-(((2S,5R)-5-((R)-hydroxy(phenyl)methyl)pyrrolidin-2-yl)methyl)-N-methyl-N-((1,4,5,6-tetrahydrocyclopenta[c]pyrazol-3-yl)methyl)benzamide] | 8.52 | 1.5 fold | 113% |
